Experimental data: patent US6670362B2, “Pyridazine endothelin antagonists” (Pfizer Inc., priority 2000, dated 2003)
Blank lines part the entries; values can stand above or below the molecule they belong to.

Columns and labels:
neointimal formation = details: S. Douglas et al., Circ. Res., 1994; cited from earlier work
ETA/B receptor = details: hypertensive patients; H. Krum et al., 1998; cited from earlier work
dog ETA receptor = molecular target: T1, dog ETA receptor (Canis lupus familiaris, UniProt Q5KSU9); assay: Dog ETA Binding Assay (125I-PD-151242, dog kidney homogenate)
T1 construct: 100 μg of purified dog kidney homogenate is added; from tissue; host or cells: dog kidney homogenate
T1 sequence (Q5KSU9 21-426): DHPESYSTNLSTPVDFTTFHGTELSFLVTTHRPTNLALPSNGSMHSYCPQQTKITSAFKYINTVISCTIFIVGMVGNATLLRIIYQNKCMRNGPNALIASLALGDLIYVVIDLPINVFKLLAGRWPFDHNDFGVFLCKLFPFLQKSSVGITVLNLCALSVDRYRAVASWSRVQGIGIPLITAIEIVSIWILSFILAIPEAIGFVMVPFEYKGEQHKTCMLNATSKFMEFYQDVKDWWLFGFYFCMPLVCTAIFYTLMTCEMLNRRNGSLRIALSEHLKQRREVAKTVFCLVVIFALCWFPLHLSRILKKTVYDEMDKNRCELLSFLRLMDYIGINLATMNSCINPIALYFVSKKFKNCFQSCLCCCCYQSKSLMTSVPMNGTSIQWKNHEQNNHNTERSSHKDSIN
Procedure: (§1) Competition between test substances and ligands binding to canine endothelin receptors is determined as follows: […] The solution is incubated at room temperature for 2 hours. After the incubation, the unbound ligand is separated from receptor bound ligand by filtration with a Brandel cell harvester, followed by 5 washes with buffer (Tris 50 mM, MgCl2 10 mM). Filter papers are counted for radioactivity and the Ki (an IC50 corrected for the dissociation constant and concentration of the ligand added) is determined for the concentration range tested.

dog ETB = molecular target: T2, dog ETB (Canis lupus familiaris, UniProt P56497); assay: Dog ETB Binding Assay (125I-IRL-1620, dog cerebellum homogenate)
T2 construct: 50 μg of purified Dog cerebellum homogenate is added; from tissue; host or cells: dog cerebellum homogenate
T2 sequence (P56497 27-442): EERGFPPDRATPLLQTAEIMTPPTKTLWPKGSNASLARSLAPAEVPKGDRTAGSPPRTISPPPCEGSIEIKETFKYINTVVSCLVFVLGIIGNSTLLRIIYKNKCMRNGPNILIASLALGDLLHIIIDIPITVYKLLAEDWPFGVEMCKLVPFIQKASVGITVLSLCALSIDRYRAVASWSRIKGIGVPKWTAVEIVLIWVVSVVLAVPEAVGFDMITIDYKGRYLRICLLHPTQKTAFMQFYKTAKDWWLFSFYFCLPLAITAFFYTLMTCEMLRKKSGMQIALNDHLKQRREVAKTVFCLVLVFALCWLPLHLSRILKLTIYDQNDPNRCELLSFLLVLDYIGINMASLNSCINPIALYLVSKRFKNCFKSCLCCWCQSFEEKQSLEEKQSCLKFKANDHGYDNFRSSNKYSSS
Procedure: as §1, with “30° C.” for “room temperature”, “90 minutes.” for “2 hours.”

ETB receptors = molecular target: T3, ETB receptors (Homo sapiens, UniProt P24530); details: in man; Hypertension, 1999, 33, 581-585; cited from earlier work
T3 construct: host or cells: man (in vivo)
T3 sequence (P24530 27-442): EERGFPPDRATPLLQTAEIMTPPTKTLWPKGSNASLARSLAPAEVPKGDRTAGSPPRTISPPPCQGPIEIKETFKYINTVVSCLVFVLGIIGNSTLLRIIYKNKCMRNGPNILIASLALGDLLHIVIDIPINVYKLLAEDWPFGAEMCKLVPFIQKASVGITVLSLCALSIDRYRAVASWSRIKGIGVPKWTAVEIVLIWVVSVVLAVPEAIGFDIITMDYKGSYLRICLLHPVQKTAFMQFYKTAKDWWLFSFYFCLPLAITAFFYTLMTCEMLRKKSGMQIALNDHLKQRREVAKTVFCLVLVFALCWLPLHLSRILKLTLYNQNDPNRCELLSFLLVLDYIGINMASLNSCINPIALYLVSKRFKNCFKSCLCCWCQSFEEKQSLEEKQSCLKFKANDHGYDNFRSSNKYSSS

SMILES: CCCOc1ccc2c(c1)[C@@H](c1ccc(OC)cc1OCC(=O)O)[C@H](C(=O)O)[C@H]2c1ccc2c(c1)OCO2 [SB-209670]
reduction in neointimal formation relative to control animals (neointimal formation): 50%

SMILES: COc1ccccc1Oc1c(NS(=O)(=O)c2ccc(C(C)(C)C)cc2)nc(-c2ncccn2)nc1OCCO [Bosentan]
blood pressure (ETA/B receptor): decreased blood pressure

Ki (dog ETA receptor): 2 nM | Ki (dog ETB): 132 nM
SMILES: COc1ccccc1Oc1c(NS(=O)(=O)CCc2ccccc2)nc(-c2cccnn2)nc1OC [Example 5]

SMILES: CCCC[C@@H](NC(=O)[C@@H](Cc1cn(C(=O)OC)c2ccccc12)NC(=O)[C@H](CC(C)(C)C)NC(=O)N1[C@H](C)CCC[C@@H]1C)C(=O)O [BQ-788]
peripheral resistance (ETB receptors): increase peripheral resistance
